Our source for the melting point values is patent US20100099694A1, “2-ANILINO-4-HETEROARYL PYRIMIDINE DERIVATIVES, AND PREPARATION THEREOF AS MEDICAMENTS, PHARMACEUTICAL COMPOSITIONS, AND IN PARTICULAR IKK INHIBITORS” (SANOFI-AVENTIS, priority 2007, published 2010).

In general, melting point refers to the temperature, or range, at which the solid turns liquid. The molecule `O=S(=O)(c1ccc(Nc2nccc(N3CCc4cc(F)ccc43)n2)cc1)N(CCN1CCCC1)C1CCNCC1` [Example 1, 4-[4-(5-Fluoro-2,3-dihydroindol-1-yl)pyrimidin-2-ylamino]-N-piperidin-4-yl-N-(2-pyrrolidin-1-yl-ethyl)benzenesulphonamide] displayed a melting point of 269.5 °C. `O=S(=O)(c1ccc(Nc2nccc(N3CCc4cc(F)ccc43)n2)cc1)N(CCN1CCCC1)C1CCN(C2CC2)CC1` [Example 2, N-(1-Cyclopropylpiperidin-4-yl)-4-[4-(5-fluoro-2,3-dihydroindol-1-yl)pyrimidin-2-ylamino]-N-(2-pyrrolidin-1-ylethyl)benzenesulphonamide] registered a melting point of 215.4 °C. For `O=S(=O)(c1ccc(Nc2nccc(N3CCc4cc(F)ccc43)n2)cc1)N(CCN1CCCC1)C1CCN(CCCC(F)(F)F)CC1` [Example 3, 4-[4-(5-Fluoro-2,3-dihydroindol-1-yl)-pyrimidin-2-ylamino]-N-(2-pyrrolidin-1-ylethyl)-N-[1-(4,4,4-trifluorobutyl)piperidin-4-yl]benzenesulphonamide], the melting point was 198 °C. For `O=S(=O)(c1ccc(Nc2nccc(N3CCc4cc(F)ccc43)n2)cc1)N(CCN1CCCC1)C1CCN(Cc2ccsc2)CC1` [Example 4, 4-[4-(5-Fluoro-2,3-dihydroindol-1-yl)pyrimidin-2-ylamino]-N-(2-pyrrolidin-1-ylethyl)-N-(1-thiophen-3-ylmethylpiperidin-4-yl)benzenesulphonamide] the value was 140 °C; for `Cn1cccc1CN1CCC(N(CCN2CCCC2)S(=O)(=O)c2ccc(Nc3nccc(N4CCc5cc(F)ccc54)n3)cc2)CC1` [Example 5, 4-[4-(5-Fluoro-2,3-dihydroindol-1-yl)-pyrimidin-2-ylamino]-N-[1-(1-methyl-1H-pyrrol-2-ylmethyl)piperidin-4-yl]-N-(2-pyrrolidin-1-ylethyl)benzenesulphonamide], 94 °C. On to `O=S(=O)(c1ccc(Nc2nccc(N3CCc4cc(F)ccc43)n2)cc1)N(CCN1CCCC1)C1CCN(CCC(F)(F)F)CC1` [Example 6, 4-[4-(5-Fluoro-2,3-dihydroindol-1-yl)-pyrimidin-2-ylamino]-N-(2-pyrrolidin-1-ylethyl)-N-[1-(3,3,3-trifluoropropyl)piperidin-4-yl]benzenesulphonamide], for which the melting point worked out at 147 °C. Molecule `O=S(=O)(c1ccc(Nc2nccc(N3CCc4cc(F)ccc43)n2)cc1)N(CCN1CCCC1)C1CCN(CC(F)(F)F)CC1` [Example 7, 4-[4-(5-Fluoro-2,3-dihydroindol-1-yl)-pyrimidin-2-ylamino]-N-(2-pyrrolidin-1-ylethyl)-N-[1-(2,2,2-trifluoroethyl)piperidin-4-yl]benzenesulphonamide] returned a melting point of 139.3 °C. Next, `O=S(=O)(c1ccc(Nc2nccc(N3CCc4cc(F)ccc43)n2)cc1)N(CCN1CCCC1)C1CCOCC1` [Example 8, 4-[4-(5-Fluoro-2,3-dihydroindol-1-yl)pyrimidin-2-ylamino]-N-(2-pyrrolidin-1-ylethyl)-N-(tetrahydropyran-4-yl)benzenesulphonamide]: 100 °C.
